Experimental data: US8969388B1, “Substituted pyrazolone compounds and methods of use” (Calitor Sciences, LLC, priority 2012, dated 2015)

Legend:
KDR (h) = target: T1, KDR (h) (Homo sapiens, UniProt P35968); test: KDR (h) (VEGF-R2 (h)) kinase assay (IC50); format: biochemical; settings: cells marked (IC50) in the Kd table
T1 construct: host or cells: E. coli BL21-derived host (T7 phage) or HEK-293
Description: (§1) The above assay procedure can be used to determine the IC50 for inhibition and/or the inhibition constant, Ki. The IC50 is defined as the concentration of compound required to reduce the enzyme activity by 50% under the condition of the assay. The IC50 value is estimated by preparing a 10 point curve using a ½ log dilution series (for example, a typical curve may be prepared using the following compound concentrations; 100 μM, 30 μM, 10 μM, 3 μM, 1 μM, 0.3 μM, 0.1 μM, 0.03 μM, 0.01 μM and 0 μM).
KDR (h) (VEGF-R2 (h)) Assay
(§2) (specific activity approx. 500 cpm/pmol, concentration as required).
(§3) The kinase assays described herein can be performed at Millipore UK Ltd, Dundee Technology Park, Dundee DD2 1SW, UK c-Met (h) Assay.

[1] = Pharmacokinetics after intravenous and oral administration in rats; format: in vivo
Description: The compounds disclosed herein are assessed in pharmacokinetic studies in mice, rats, dogs or monkeys. The compounds are administered as a water solution, 2% HPMC+1% TWEEN®80 in water solution, 5% DMSO+5% solutol in saline, 4% MC suspension or capsule. For the intravenous administration, the animals are generally given at 1 or 2 mg/kg dose. For the oral (p.o.) dosing, mice and rats are generally given 5 or 10 mg/kg dose, and dogs and monkeys are generally given 10 mg/kg dose. The blood samples (0.3 mL) are drawn at 0.25, 0.5, 1.0, 2.0, 3.0, 4.0, 6.0, 8.0, 12 and 24 h time points or 0.083, 0.25, 0.5, 1.0, 2.0, 4.0, 6.0, 8.0 and 24 h time points and centrifuged at 3,000 or 4000 rpm for 2 to 10 min. The plasma solutions are collected, stored at −20° C. or −70° C. until analyzed by LC/MS/MS as described above.

c-Met (h) = target: T2, c-Met (h) (Homo sapiens, UniProt P08581); test: c-Met (h) kinase assay (IC50); format: biochemical; settings: cells marked (IC50) in the Kd table
T2 construct: host or cells: E. coli BL21-derived host (T7 phage) or HEK-293
T2 sequence (P08581 25-1390): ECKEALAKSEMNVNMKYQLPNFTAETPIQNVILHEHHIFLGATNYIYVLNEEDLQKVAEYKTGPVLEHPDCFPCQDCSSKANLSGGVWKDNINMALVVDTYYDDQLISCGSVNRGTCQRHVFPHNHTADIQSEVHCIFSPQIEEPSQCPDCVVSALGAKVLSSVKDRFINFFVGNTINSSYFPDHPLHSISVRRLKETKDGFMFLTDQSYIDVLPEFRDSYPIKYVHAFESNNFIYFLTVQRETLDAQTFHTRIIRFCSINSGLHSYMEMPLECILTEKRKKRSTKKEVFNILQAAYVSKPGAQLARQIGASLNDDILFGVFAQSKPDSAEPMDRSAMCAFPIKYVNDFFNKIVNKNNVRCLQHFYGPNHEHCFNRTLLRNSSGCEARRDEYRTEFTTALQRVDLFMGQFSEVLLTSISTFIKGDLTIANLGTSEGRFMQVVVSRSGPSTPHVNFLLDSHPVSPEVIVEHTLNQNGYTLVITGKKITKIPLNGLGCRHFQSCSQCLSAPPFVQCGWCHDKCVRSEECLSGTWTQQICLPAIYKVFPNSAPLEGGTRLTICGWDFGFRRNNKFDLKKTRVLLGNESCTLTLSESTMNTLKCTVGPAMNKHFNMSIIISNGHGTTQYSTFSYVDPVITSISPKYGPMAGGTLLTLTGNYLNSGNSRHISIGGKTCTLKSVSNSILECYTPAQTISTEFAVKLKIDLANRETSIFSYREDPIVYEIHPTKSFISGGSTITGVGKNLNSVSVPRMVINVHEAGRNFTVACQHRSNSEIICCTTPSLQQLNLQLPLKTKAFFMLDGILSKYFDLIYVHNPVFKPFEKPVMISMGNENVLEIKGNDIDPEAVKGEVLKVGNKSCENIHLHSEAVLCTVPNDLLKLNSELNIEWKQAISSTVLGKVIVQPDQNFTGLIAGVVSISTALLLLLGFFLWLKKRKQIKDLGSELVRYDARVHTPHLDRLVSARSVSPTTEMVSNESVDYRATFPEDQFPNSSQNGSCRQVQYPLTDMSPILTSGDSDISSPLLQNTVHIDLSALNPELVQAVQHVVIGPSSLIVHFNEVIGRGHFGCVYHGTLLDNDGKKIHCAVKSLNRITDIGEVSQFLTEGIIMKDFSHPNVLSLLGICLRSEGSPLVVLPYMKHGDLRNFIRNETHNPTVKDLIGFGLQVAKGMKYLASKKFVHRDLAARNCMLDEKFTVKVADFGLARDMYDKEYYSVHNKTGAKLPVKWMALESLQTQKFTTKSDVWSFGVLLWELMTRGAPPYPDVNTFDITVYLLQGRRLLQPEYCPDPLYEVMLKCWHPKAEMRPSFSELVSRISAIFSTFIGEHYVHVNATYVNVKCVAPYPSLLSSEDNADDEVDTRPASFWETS
Description: as §1, §2, §3

[2] = rat, plasma, iv dosing, 2 mg/kg

T1 sequence (P35968 20-1356): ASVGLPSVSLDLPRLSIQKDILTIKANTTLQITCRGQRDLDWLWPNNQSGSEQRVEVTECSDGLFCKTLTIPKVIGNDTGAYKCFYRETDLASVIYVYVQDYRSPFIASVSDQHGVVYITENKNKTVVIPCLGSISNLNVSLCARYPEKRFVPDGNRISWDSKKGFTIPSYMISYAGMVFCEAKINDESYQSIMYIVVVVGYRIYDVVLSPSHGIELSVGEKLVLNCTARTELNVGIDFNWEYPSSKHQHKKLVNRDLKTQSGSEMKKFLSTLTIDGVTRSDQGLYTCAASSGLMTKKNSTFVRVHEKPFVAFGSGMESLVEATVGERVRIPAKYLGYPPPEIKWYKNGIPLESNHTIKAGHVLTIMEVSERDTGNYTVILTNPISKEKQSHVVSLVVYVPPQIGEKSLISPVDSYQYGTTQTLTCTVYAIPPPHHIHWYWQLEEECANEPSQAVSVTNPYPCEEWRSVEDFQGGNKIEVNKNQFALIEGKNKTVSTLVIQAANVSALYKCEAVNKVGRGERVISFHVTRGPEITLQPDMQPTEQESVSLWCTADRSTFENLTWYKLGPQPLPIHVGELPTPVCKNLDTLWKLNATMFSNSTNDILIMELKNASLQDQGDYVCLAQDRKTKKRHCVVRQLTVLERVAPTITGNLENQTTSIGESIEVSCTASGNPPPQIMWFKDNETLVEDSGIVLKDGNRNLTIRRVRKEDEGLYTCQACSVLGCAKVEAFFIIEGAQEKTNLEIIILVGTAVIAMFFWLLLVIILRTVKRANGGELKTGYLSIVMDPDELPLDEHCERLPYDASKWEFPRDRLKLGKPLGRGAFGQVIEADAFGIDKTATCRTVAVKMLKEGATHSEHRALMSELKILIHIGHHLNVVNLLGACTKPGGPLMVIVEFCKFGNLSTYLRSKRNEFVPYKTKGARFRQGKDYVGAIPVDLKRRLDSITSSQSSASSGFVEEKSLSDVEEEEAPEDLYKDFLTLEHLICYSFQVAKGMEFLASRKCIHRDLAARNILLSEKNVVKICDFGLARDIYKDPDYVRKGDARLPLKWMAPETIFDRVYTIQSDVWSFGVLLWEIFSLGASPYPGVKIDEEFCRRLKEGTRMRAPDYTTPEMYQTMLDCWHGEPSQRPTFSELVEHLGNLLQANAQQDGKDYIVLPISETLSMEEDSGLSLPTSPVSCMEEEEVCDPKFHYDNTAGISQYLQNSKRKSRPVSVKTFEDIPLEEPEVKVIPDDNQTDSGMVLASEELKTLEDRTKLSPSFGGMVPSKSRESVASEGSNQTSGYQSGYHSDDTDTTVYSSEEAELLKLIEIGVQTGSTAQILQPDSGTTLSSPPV

For `Cc1c(C(=O)Nc2ccc(Oc3ccnc(N)c3)c(F)c2)c(=O)n(-c2ccccc2)n1C` [Ex. 22, N-(4-((2-aminopyridin-4-yl)oxy)-3-fluorophenyl)-1,5-dimethyl-3-oxo-2-phenyl-2,3-dihydro-1H-pyrazole-4-carboxamide], the IC50 (KDR (h)) was > 3 µM, the “clearance (CL) after iv dosing” value ([1]; iv dosing, 2 mg/kg) was 0.80 L/h/kg and the F ([1]; oral bioavailability, iv dose 2 mg/kg, oral dose not given) was 78.1%. The AUC(0-t) [1, 2] was 2510 ng·h/mL, the half-life [1, 2] was 43.2 min and the Vd ([1]; rat, plasma, iv dosing, 2 mg/kg, read-out: Vss) was 0.56 L/kg. The IC50 (c-Met (h)) was 84 nM.
